Measured values: article PMC10480161, “Identification of potent and selective N-myristoyltransferase inhibitors of Plasmodium vivax liver stage hypnozoites and schizonts” (Nature Communications, 2023)
Several values for one entry are separate records, joined by “and”; a condition that tells them apart may be missing. Identical values can stand only once.

Tests used:
[1] = tested on: P. falciparum NF54; test: P. falciparum blood stage assay (SYBR Green); type: cell-based, Plasmodium falciparum; details: 72 h; for P. falciparum blood-stage development (parasite DNA level fluorescence): untreated = 129; for IC50: Plasmodium falciparum, NF54, ring-stage parasites, relative IC50
Description: To assess whether any of the PvNMTis developed here could qualify as TCP-1 candidates, we assessed the effect of each compound on blood-stage P. falciparum parasites, as there is currently no well-established in vitro platform for screening P. vivax blood-stage parasites. Synchronized P. falciparum NF54 ring-stage parasites were treated for 72 h with each compound at various concentrations, ranging from 0.625 µM to 10 µM, and parasite DNA replication was measured using a fluorescent DNA binding dye (SYBR Green).
Sorbitol-synchronized P. falciparum NF54 ring-stage parasites were cultured at a parasitemia of 0.5% and hematocrit of 1.5% in a 96-well microtiter plate. Parasites were treated with each NMT inhibitor compound at 0.625, 1.25, 2.5, 5, or 10 µM for 72 h. Direct lysis of the blood cells to release the parasite DNA was performed by adding 100 μl of LBS buffer containing SYBR green I DNA binding dye to each well. […] ICEstimator regression analysis (http://www.antimalarial-icestimator.net/) was used to obtain relative IC50 values for each compound.

[2] = tested on: P. vivax schizonts; test: P. vivax liver stage assay, schizonts; type: cell-based, Plasmodium vivax; details: for Number of liverstage Schizonts per well: 20 µM, 8 dpi; for IC50: Plasmodium vivax, Hepatocyte, 120 h, primary human hepatocytes, treatment day 5 to 8 post-infection, isolates 2 and 3
Procedure, shortened: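 Compound exposure ran days 5–8 post-infection with daily refeeding, dose-response up to 20 µM, MMV390048 at 20 µM as positive control. Host cells were single-lot primary human hepatocytes infected with freshly dissected P. vivax sporozoites; fixed cultures stained with anti-PvUIS4 and DAPI, schizonts quantified by confocal microscopy.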

[3] = HepG2 cytotoxicity assay (Live/Dead staining); details: human, HepG2 cells
Procedure, shortened: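 Live/dead fluorescence microscopy (calcein-AM and ethidium homodimer, 1 µM each) read at 72 h post-treatment. Compounds dosed at 1 to 20 µM on HepG2 cells, with washing and fresh compound every 24 h.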

[4] = isolate 1, technical replicates (Fig. 5b)
[5] = isolate 2, technical replicates (Fig. 5b)
[6] = isolate 3, technical replicates (Fig. 5b)

Structure (SMILES) | P. falciparum blood-stage development (parasite DNA level fluorescence) ([1]; 0.625 uM) | P. falciparum blood-stage development (parasite DNA level fluorescence) ([1]; 1.25 uM) | P. falciparum blood-stage development (parasite DNA level fluorescence) ([1]; 2.5 uM) | P. falciparum blood-stage development (parasite DNA level fluorescence) ([1]; 5 uM) | P. falciparum blood-stage development (parasite DNA level fluorescence) ([1]; 10 uM) | IC50 [1] | Number of liverstage Schizonts per well [2, 4] | Number of liverstage Schizonts per well [2, 5] | Number of liverstage Schizonts per well [2, 6] | Schizonts per well ([2]; Isolate 2, 1.25 uM) | Schizonts per well ([2]; Isolate 2, 2.5 uM) | Schizonts per well ([2]; Isolate 2, 5 uM) | Schizonts per well ([2]; Isolate 2, 10 uM) | Schizonts per well ([2]; Isolate 3, 1.25 uM) | Schizonts per well ([2]; Isolate 3, 2.5 uM) | Schizonts per well ([2]; Isolate 3, 5 uM) | Schizonts per well ([2]; Isolate 3, 10 uM) | Schizonts per well ([2]; Isolate 3, 20 uM (Fig. 5c-d)) | IC50 [2] | schizonts (fold change to DMSO) mean diff ([2]; isolate 1, 20 µM) | further results
Cc1nn(C)c(C)c1CCOc1cc(F)ccc1-c1cccc(OCCN(C)C)c1 [Compound 26c] | 127.1 | 126.9 | 117.8 | 108.1 | 97.66 | 0.82 µM | 0 per well | 3 per well and 0 per well (2×) | 2 per well and 1 per well | 14 per well and 13 per well and 12 per well | 10 per well and 15 per well and 13 per well | 7 per well and 12 per well and 8 per well | 5 per well and 3 per well and 6 per well | 11 per well and 9 per well | 6 per well and 10 per well | 7 per well and 5 per well | 4 per well and 2 per well | 2 per well and 1 per well | 2.8 to 4.2 µM | 1.000 | schizonts (fold change to DMSO) mean diff ([2]; isolate 2, 20 µM): 0.9434; schizonts (fold change to DMSO) mean diff ([2]; isolate 3, 20 µM): 0.8977; IC50 at 48 h [3]: > 20 µM
Cc1nn(C)c(C)c1CCOc1ccccc1-c1cccc(N2CCNCC2)c1 [Compound 12d] | 123.5 | 124.2 | 118.5 | 101.9 | 92.65 | 0.8 µM | 1 per well (2×) and 0 per well | 2 per well and 0 per well and 1 per well | 2 per well and 1 per well | 12 per well and 13 per well | 11 per well and 9 per well and 15 per well | 9 per well and 7 per well and 11 per well | 8 per well and 5 per well | 12 per well | 6 per well and 11 per well | 7 per well and 6 per well | 5 per well and 4 per well | 2 per well and 1 per well | 3.3 to 4.3 µM | 0.967 | schizonts (fold change to DMSO) mean diff ([2]; isolate 2, 20 µM): 0.9434; schizonts (fold change to DMSO) mean diff ([2]; isolate 3, 20 µM): 0.8977; IC50 at 48 h [3]: > 20 µM
